Results from US5510459A, “Glucagon antagonists” (ZymoGenetics, Inc., priority 1992, dated 1996).
Ends that are not written are not given here.

Assays:
[1] = biological target: T1, glucagon receptor (rat liver membrane adenylate cyclase) (Rattus norvegicus, UniProt P30082); experiment: Adenylate cyclase activity assay with synthetic peptide glucagon analogs (Example 6); format: biochemical; conditions: synthetic peptides; in the presence of 20 nm glucagon
T1 construct: A. Preparation of Rat Liver Membranes; from tissue; host or cells: rat liver (Sprague-Dawley) plasma membranes
Experimental: The adenylate cyclase assay was carried out byfirst adding 5 μl of sample (e.g. yeast broth) containingpotential inhibitors at micromolar concentrations to eachwell of a 96-well microtiter plate. […] Fifty microliters of the A+Bsolution was added to each "no glucagon" control well.Glucagon was added from the "G" solution to the remainingA+B solution to a concentration of 1×10^-8 M (thisresults in a final assay concentration of 5×10^-9).Fifty microliters of the A+B+glucagon solution was addedto each well, excluding the "no glucagon" controls. Themembrane preparation was diluted to approximately 2 mg/mlprotein with water. The reaction was started by theaddition of 45 μl of diluted membrane to each well, inorder. The assays were incubated for 12 minutes at roomtemperature, and were stopped by the addition of 100 μl ofStop Mix to each well in the same order that the dilutedmembrane was added. The assay mixtures were clarified bycentrifugation, and the assays were stored at 4° C.
Cyclic AMP concentrations were determined usingan Amersham Scintillation Proximity Assay Kit (Amersham,Arlington Heights, Ill.). Briefly, 10 μl from eachadenylate cyclase reaction was added to individual betaplate wells. Each sample was diluted with 65 μl of 50 mM Na Acetate. Cyclic AMP standards were prepared at 0.0,1.6 and 6.4×10^-9 M or may be prepared from the"non-standards" supplied with Amersham kit.Triplicate standards of 75 μl of each standard were addedto individual beta plate wells. Nonspecific binding (NSB)controls were prepared by adding 150 μl of 50 mM NaAcetate to triplicate beta plate wells. […] Seventy-fivemicroliters of diluted anti-rabbit SPA reagent was thenadded to each well, and the plates were sealed andincubated, with shaking, overnight at room temperature.The plates were counted for one minute per sample in abeta-plate counter. […] The percent response for thestandards and samples was determined using the formula: […]

[2] = biological target: T2, glucagon receptor (liver plasma membranes) (Rattus norvegicus, UniProt P30082); experiment: Glucagon binding assay (125I-glucagon, liver plasma membranes); conditions: 30 minute incubation at 30° C., peptide 1.5-800 ng/ml
T2 construct: 25 μl of freshly thawed plasmamembrane containing 10-20 μg of plasma membrane protein; from tissue
Experimental: The ability of the synthetic peptides to inhibitglucagon binding was determined by measuring the bindingof radiolabeled glucagon in the presence of syntheticpeptide relative to the binding of radiolabeled glucagonin the absence of the synthetic peptides. The syntheticpeptides were dissolved in 10% acetic acid and lyophilizedbefore use. Glucagon was dissolved in 10% acetic acid andlyophilized in 25-μg portions for use as standards. ^125 I-glucagonwith a specific activity of 11.1 kBq/ng wasobtained from Novo Biolabs (Novo Alle, Bagsvaerd, Denmark)and stored at -18° C. Plasma membranes were prepared aspreviously described, except protein detemination wascarried out using a Bio-Rad Protein Assay (BioRad,Richmond, Calif.) according to the manufacturer's directionsusing bovine serum albumin as a standard. Milli-Q gradewater was used throughout .
The lyophilized glucagon and synthetic peptideswere dissolved in 100 μl of 0.05M HCl, left for 3 minutes. The glucagon was diluted with buffer (2.5% humanserum albumin Grade 5, Sigma Chemical Co., St. Louis, Mo.! in 0.1M HEPES, 0.15M NaCl, pH 7.4) to 0.2-200ng/ml.The synthetic peptides were diluted with the same bufferto 1.5-800 ng/ml. […] The filters were counted in a gamma counter.The binding of des-His^1 -(Ala^2,11 -Glu^21)glucagonamide wasshown to be 84%±9.3.

[3] = biological target: T1, glucagon receptor (rat liver membrane adenylate cyclase); experiment: Glucagon antagonist screening assay: adenylate cyclase reaction and cAMP assay with yeast culture broths; format: biochemical; conditions: no exogenous glucagon
Text: Young female Sprague-Dawley rats were used forthe preparation of liver membranes using the methodessentially described by Neville (ibid.) and modified byPohl et al. (ibid). Ten to 15 rats yielding 60-100 grams of liver were processed per batch. After the rats wereeuthanized by cervical dislocation, their livers weresurgically removed and transferred, as quickly aspossible, to an iced beaker. Scissors were used to mincethe tissue into pieces approximately 3-6 mm in size. Anyconnective tissue that was present was removed.
The minced tissue was suspended in ice cold 1 mMsodium bicarbonate at a concentration of approximately300 g/l. This suspension was processed in batches in atissue homogenizer with eight strokes of the loose pestle.The homogenate was mixed with additional ice cold 1 mMsodium bicarbonate to yield a final concentration of about40-80 g/l. […]
After centrifugation, as much of the supernatantas possible was carefully decanted and discarded, and thepellets were gently resuspended in the remainingsupernatant with three strokes of the loose pestle in aclean tissue homogenizer. […] After thorough mixing, thesucrose concentration was measured with a refractometerand adjusted to between 43.9% and 44.1% sucrose(corresponding to a refractive index between 1.4076 and1.4080) with either 69% sucrose or water. […]

T1 sequence (P30082 27-485): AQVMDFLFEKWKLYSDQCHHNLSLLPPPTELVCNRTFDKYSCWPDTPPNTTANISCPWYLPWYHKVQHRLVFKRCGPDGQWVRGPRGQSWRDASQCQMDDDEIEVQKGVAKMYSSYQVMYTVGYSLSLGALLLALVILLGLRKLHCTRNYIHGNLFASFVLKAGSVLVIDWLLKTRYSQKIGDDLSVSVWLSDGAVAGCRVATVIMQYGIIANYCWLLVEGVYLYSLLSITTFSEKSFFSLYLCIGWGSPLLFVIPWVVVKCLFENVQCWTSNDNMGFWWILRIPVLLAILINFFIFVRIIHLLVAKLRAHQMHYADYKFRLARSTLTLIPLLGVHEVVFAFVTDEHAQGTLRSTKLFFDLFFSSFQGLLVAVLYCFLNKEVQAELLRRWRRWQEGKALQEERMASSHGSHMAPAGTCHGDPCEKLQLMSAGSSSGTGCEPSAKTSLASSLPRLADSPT
T2 sequence (P30082 27-485): as above

Molecule | inhibition coefficient (I/A50): ratio of inhibitor to agonist concentration wherein the response is reduced to one-half [1] | further results
CSCC[C@H](NC(=O)[C@H](CC(C)C)NC(=O)[C@H](Cc1c[nH]c2ccccc12)NC(=O)[C@H](CCC(N)=O)NC(=O)[C@@H](NC(=O)[C@H](Cc1ccccc1)NC(=O)[C@H](CC(=O)O)NC(=O)[C@H](CCC(N)=O)NC(=O)[C@H](C)NC(=O)[C@H](CCCNC(=N)N)NC(=O)[C@H](CCCNC(=N)N)NC(=O)[C@H](CO)NC(=O)[C@H](CC(=O)O)NC(=O)[C@H](CC(C)C)NC(=O)[C@H](Cc1ccc(O)cc1)NC(=O)[C@H](CCCCN)NC(=O)[C@H](CO)NC(=O)[C@H](Cc1ccc(O)cc1)NC(=O)[C@H](CC(=O)O)NC(=O)[C@H](CO)NC(=O)[C@@H](NC(=O)[C@H](Cc1ccccc1)NC(=O)[C@@H](NC(=O)CNC(=O)[C@H](CCC(N)=O)NC(=O)[C@@H](N)CO)[C@@H](C)O)[C@@H](C)O)C(C)C)C(=O)N[C@@H](CC(N)=O)C(=O)N[C@@H](CO)C(=O)O [F73, des-His^1 - Ser^29 !glucagon] | 30 | 
AQGTFTSDYAKYLDSRRAQEFVQWLMNT-NH2 [des-His^1 -(Ala^2,11 -Glu^21)glucagon amide] |  | binding (inhibition of radiolabeled glucagon binding) [2]: 84%±9.3
DAQGTFISDYSKYLDSRRAQDFVQWLMNT [BB65, Asp^1 -Ala^2 -Ile^7 !glucagon] | 25 | 
SQSTFTSDYSKYLDSRRAQDFVQWLMNT [G56, des-His^1 - Ser^4 !glucagon] | 25 | 
glucagon [ZB210] |  | stimulation of adenylate cyclase activity by culture broth in the absence of exogenous glucagon [3]: stimulation of adenylate cyclase
